| melting point | SMILES |
| --- | --- |
| 120 to 121 °C | CNc1ccc(C(=O)N2CCN(CCc3ccc(SC)cc3)CC2)cc1 |
| 118 °C | COCCOc1ccc(CCCOC(=O)NS(=O)(=O)NCCc2cccs2)c(Oc2ncc(C(F)(F)F)cc2Cl)c1 |
| 221 to 225 °C | Nc1ncc(-c2ccccc2F)nc1C(=O)Nc1cccnc1 |
| 148 to 149 °C | COC(=O)C1=C(CF)NC(C)=C(C(=O)OC(C)C)C1c1cccc(Cl)c1Cl (stereo unspecified) |
| 67 to 68 °C | CN(C)C(=S)SC(C[N+](=O)[O-])c1ccco1 (stereo unspecified) |
| 115 to 116 °C | COC(OC)c1cnc(N2C(=O)c3ccccc3C2=O)c(C#N)n1 |
| 228 °C | CC(C)(C)S(=O)(=O)c1ccccc1NC(=O)N[C@@H](Cc1ccc(NC(=O)c2c(Cl)cncc2Cl)cc1)C(=O)O |
| 142 to 144 °C | CCOC(=O)C1(CC(=O)O)C(=O)N(Cc2ccc(Br)cc2F)C(=O)c2cccn21 (stereo unspecified) |
| 154 to 155 °C | N#CC(c1ccccc1)(c1ccccc1)C1CCN(C(=O)Oc2ccccc2)C1 (stereo unspecified) |
| 196 to 198 °C | Oc1ccc(-c2c(Cl)c3cc(O)ccc3n2Cc2ccc(OCCN3CCCCCC3)cc2)cc1 |
| 114 to 116 °C | CN(CCN1CCN(c2cccc3c2OCCO3)CC1)c1cnn(C)c(=O)c1Cl |
| > 290 °C | CCOC(=O)c1[nH]c2cc(Cl)cc(Cl)c2c1NCC(=O)c1ccccc1F |
| 85 to 86 °C | Cc1ccc(CN(CCCC(N)=O)Cc2ccc(C)cc2)cc1 |
| 200 to 201 °C | CN1C(=O)Cn2c(C(=O)N3CCOCC3)nnc2-c2cc(Cl)ccc21 |
| 89 to 90 °C | CC(C)(C)[C@H]1CC[C@@H](Nc2ncnc(I)c2Cl)CC1 |
| 142 to 144 °C | NC(=O)c1csc(C2OC(CO)C(O)C2O)n1 (stereo unspecified) |
| 90 to 91 °C | C1CCCCN2CCOCCOCCN(CCC1)CCOCCOCC2 |
| 160 to 161 °C | Cc1cc(O)ccc1C(=O)O |
| 121 to 123 °C | CC(C)N1CCN(CCN2CCC(c3noc4cc(F)ccc34)CC2)C1=O |
| 78 to 81 °C | COc1cc(NS(=O)(=O)c2cccc(C(F)(F)F)c2)cc(OC)c1 |
| 191 to 192 °C | COc1cc2c(c3c1OC(C)(C)C3)C(c1ccc(=O)n(-c3ccc4ccccc4n3)c1)=NC(C)(C)C2 |
| 120 °C | O=C(Nc1ccc(Cl)cc1)C(O)c1ccccc1Cl (stereo unspecified) |
| 120 to 122 °C | COc1cc(OC)c(-c2cc3ccccc3n2C)cc1C=CC(=O)c1ccc(S(=O)(=O)N(C)C)cc1 |

| melting point | SMILES |
| --- | --- |
| 108 to 109 °C | CC(=O)c1nn(CCOS(C)(=O)=O)cc1C |
| 222 to 228 °C | CCOP(=O)(Cc1nnc2c(=O)[nH]c3cc(C(F)(F)F)c([N+](=O)[O-])cc3n12)OCC |
| 117 to 118 °C | C=CCOc1ccccc1C=C(C=O)C(C=O)=Cc1ccccc1OCC=C |
| 127 °C | CC(C)(C)NS(=O)(=O)c1ccc(N)cc1 |
| 45 to 47 °C | Cc1cc(Oc2ncc(C(F)(F)F)cc2Cl)nn1C(=O)NCC(C)C |
| 45 to 47 °C | CCOc1nc(=O)n(-c2cc(C(=O)OC)c(Cl)cc2F)c(=O)n1C |
| 36 to 38 °C | CC(C)NC(=O)n1nc(N(C)C)n(C)c1=O |
| 102 to 106 °C | CC1(C)C=C(c2cccc(C(F)(F)F)c2)c2ccc(O)cc2O1 |
| 103 °C | OC(Cn1cncn1)(c1ccc(F)cc1F)C1(SC(F)(F)F)CC1 (stereo unspecified) |
| 131 to 133 °C | O=C(O)CCCNC(=O)c1ccc(Cl)cc1O |
| 33 to 34.3 °C | CCCCCCCCc1ccc(-c2ncc(OCC(C)OC(=O)CCCCCC)cn2)cc1 (stereo unspecified) |
| 156 to 157 °C | CC(=O)N1c2ccccc2-c2c([N+](=O)[O-])cnn2C1c1ccccc1 (stereo unspecified) |
| 112 to 113 °C | CCOC(=O)/C=C/c1cnn(Cc2ccc(OCc3nc(-c4ccccc4)oc3C)cc2)c1 |
| 155 °C | Oc1cccc(C2=CCCN(CCc3ccccc3)C2)c1 |
| 180 °C | CCCCCCCCc1cc2c(cc1/C=C/c1ccc(C(=O)O)cc1)CCC(C)(C)CC2 |
| 93 to 95 °C | Clc1ccc(Oc2ccccc2Oc2ncc(Br)cn2)nc1 |
| 256 to 258 °C | CC1CC(=O)NN=C1c1ccc(N2CCC(CN3C(=O)c4ccccc4C3=O)CC2)c([N+](=O)[O-])c1 (stereo unspecified) |
| 44 to 47 °C | CC(=O)CCCCN1CCN(c2ncccn2)CC1 |
| 55 to 57 °C | CCCc1c(OCCOCCOc2c(C(C)=O)ccc(OCCCCCC(=O)O)c2CCC)ccc(C(C)=O)c1O |
| 109 to 111 °C | CCCCc1nc(SC)c(C(=O)O)n1Cc1ccc(-c2ccccc2S(=O)(=O)NC(=O)NCCC)cc1 |
| 197 to 198 °C | COC(=O)c1nc(-c2ccc(Cl)c(OC)c2F)nc2ncn(C)c12 |
| 166 to 168 °C | C/C(=N\OC(=O)c1ccc(CNC(=O)OC(C)(C)C)cc1)[C@H]1CC[C@H]2[C@@H]3CCC4=CC(=O)CC[C@]4(C)[C@H]3CC[C@]12C |
| 246 to 249 °C | O=C(CSc1ccccc1)Nc1c(Cl)ccc2nc(N3CC[C@@H](O)C3)ccc12 |

| melting point | SMILES |
| --- | --- |
| 96 to 97 °C | CCCCCCOC(=O)c1cccc(-c2cn(C)cc(-n3cccn3)c2=O)c1 |
| 176 to 177 °C | Cc1c(NC(=O)c2ccc(-c3ccc4c(c3)CCO4)cc2)ccc2cc(CN3CCCC3)cnc12 |
| 110 to 114 °C | O=Cc1ccc2c(n1)COC(c1ccccc1)O2 (stereo unspecified) |
| 185 to 186 °C | O=C(Nc1ccc(-n2nc(C(F)(F)F)cc2C(F)(F)F)cc1)N1CCOCC1 |
| < 80 °C | CCC12CC3CC(CC(C)(C3)C1)C2 |
| 266 to 268 °C | CCOC(=O)c1c[nH]c2nc(N3CCN(C)CC3)ncc2c1=O |
| 178 °C | CCCCCCCCOc1ccc(-c2nc(-c3ccccc3)c(-c3ccccc3)[nH]2)cc1 |
| 240 to 242 °C | O=C1Nc2ccc(-c3ccc(C=NO)c(F)c3)cc2C12CCCCC2 |
| 159 to 160 °C | COc1ccc2c(c1)c(CC(=O)O[C@H]1CO[C@H]3[C@H]1OC[C@H]3O[N+](=O)[O-])c(C)n2C(=O)c1ccc(Cl)cc1 |
| 274 to 278 °C | CC(C)(C)c1cc(SC2CC(=O)N(c3ccc(N4C(=O)CC(Sc5cc(C(C)(C)C)c(O)c(C(C)(C)C)c5)C4=O)cc3)C2=O)cc(C(C)(C)C)c1O (stereo unspecified) |
| 204 °C | OC(CN1CCNC1=S)c1ccncc1 (stereo unspecified) |
| 238 to 239 °C | O=C(O)Cc1ccc(CCN2CCNCC2)cc1 |
| 164 to 166 °C | CC(C)(C)c1cc(CCc2n[nH]c(=S)o2)cc(C(C)(C)C)c1O |
| 183 to 184 °C | CS(=O)(=O)c1ccc(-n2nc(C(F)(F)F)cc2-c2ccc(-n3ccnc3)cc2)cc1 |
| 95 to 100 °C | CC(CSS)C(=O)Nc1ncccc1C(=O)O (stereo unspecified) |
| 168 to 171 °C | CCOC(=O)Cc1ccc(NC(=O)C(COc2cccnc2)NS(=O)(=O)c2ccc(Br)cc2)cc1 (racemic) |
| 95 °C | COc1cc(C(=O)c2c(C)c(C(=O)OCc3ccccc3)c3cc(NC(=O)OC(C)(C)C)ccn23)ccc1[N+](=O)[O-] |
| 199 °C | Cc1cccc(C(=O)O)c1N(C)S(=O)(=O)c1ccc(OCCCNC(=O)c2cc3ccccc3[nH]2)cc1 |
| 82 to 85 °C | COC(=O)c1[nH]c2c(C)ccc(C)c2c1SC |
| 355 to 360 °C | COc1ccc(-c2ccc(O)c(C34CC5CC(CC(C5)C3)C4)c2)cc1C=C1SC(N2CCOCC2)=NC1=O |
| 105 to 106 °C | C#CCn1c(I)cc(C(O)C(C)(C)C)c(C)c1=O (stereo unspecified) |
| 152 to 154 °C | COc1cc(N)c(Cl)cc1C(=O)OCC12CCCN(CCC1)C2 |
| 243 to 244 °C | CS(=O)(=O)c1ccc(-c2cc(C(F)(F)F)nn2-c2ccc(O)cc2)cc1 |

| melting point | SMILES |
| --- | --- |
| 165 to 167 °C | CCCOc1cc2ccccc2c2c(=O)c(-c3ccoc3)cn(C)c12 |
| 242 to 243 °C | COc1cc(-c2nnn[nH]2)ccc1Cc1cn(C)c2ccc(NC(=O)CC3CCCC3)cc12 |
| 121 to 123 °C | c1ccc(C(=C(c2ccccc2)P(C2CCCCC2)C2CCCCC2)c2ccccc2)cc1 |
| 48 °C | Fc1cccc(COc2ccc(I)cc2)c1 |
| 73 to 75 °C | CC(C)(C)c1cc(NC(=O)Nc2ccc(Oc3cccc(NC(=O)OCc4ccccc4)c3)cc2)no1 |
| 86 °C | Cc1ccc(C(=O)c2cc([N+](=O)[O-])ccc2N2CCC(C)CC2)cc1 |
| 129 to 131 °C | CC(C)(C)C(C)(C)Nc1nc(Cl)nc(NC(C)(C)C(C)(C)C)n1 |
| 109 to 114 °C | CCOC(=O)CSc1nc(Cl)cc(Nc2ccccc2)n1 |
| 235 to 237 °C | COC(=O)c1ccc2[nH]c(=O)n(Cc3ccc(OC)cc3)c(=O)c2c1 |
| 260 to 261 °C | COc1ccc(C(=O)Nc2ccccc2)cc1NS(=O)(=O)c1sc(NC(C)=O)nc1C |
| 254 to 255 °C | CCn1c(=O)c2c(nc(/C=C/c3cc(OC)ccc3OC(=O)c3ccccc3)n2C)n(CC)c1=O |
| 155 to 158 °C | CCOC(=O)c1ncn(-c2nccs2)c1S |
| 100 to 103 °C | O=C1CC2(CCCC2)C(=O)N1c1ccncc1 |
| 43.6 to 45.6 °C | NC1CCn2c(CCc3ccccc3)nc3cccc1c32 (stereo unspecified) |
| 160 to 163 °C | c1cn(CCc2nc(-c3ccc4c(c3)OCO4)c3cc4c(cc3n2)OCO4)cn1 |
| 212 to 213 °C | CC(=O)Nc1cc2c(cc1[N+](=O)[O-])N(NC(C)=O)CC2 |
| 103 to 106 °C | COc1ccc(CNc2c(-c3cc(Cl)ccc3O)c3cc(C(F)(F)F)ccc3[nH]c2=O)cc1 |
| 193 to 196 °C | CSc1cnc(NC(=O)c2ccc(OC(C)=O)cc2)s1 |
| 222 to 223 °C | COc1ccc(C(=O)Nc2cc(-c3c(-c4ccc(F)c(C)c4)nc4cccnn34)ccn2)cc1 |
| 176 to 177 °C | COc1ccc2c(c1)C=C(C(=O)O)CCO2 |
| 106 to 108 °C | CCOC(=O)C1=C(C)NC(=S)N(C(=O)OCC)C1c1ccccc1C(F)(F)F (stereo unspecified) |
| 213 to 214 °C | O=C(O)C1=Cc2cc(-c3ccc(F)cc3)ccc2CC1 |

| SMILES | melting point |
| --- | --- |
| O=C1CN=C(c2ccccc2)c2ccccc2N1 | 180 to 181 °C |
| CC(C)NC(=O)c1ccc(N2CCC(N3C(=O)OCc4ccccc43)CC2)nc1 | > 230 °C |
| CC12CCCC=C1CCC1C2CCC2(C)C(O)CCC12 (stereo unspecified) | 144 to 147 °C |
| CC(C)C[C@H](CN)CC(=O)O | 192 to 196 °C |
| CC(C)(C)OC(=O)NCCNC(=O)c1cccc2c1c(C(=O)C(=O)NC1=CC(=O)OC1)cn2Cc1ccc(Cl)cc1 | 218 to 219 °C |
